Test results reported in patent US20210401823A1, “INHIBITORS AND ANTAGONISTS OF GPR84 FOR THE TREATMENT OF ENDOMETRIOSIS” (Bayer Pharma Aktiengesellschaft, priority 2017, published 2021).
pEC50, pIC50: −log10 of the molar value. One block for each molecule: values may come before it.

Legend:
[1] = system: Human eutopic endometrium tissue biopsies; experiment: Ex vivo assay 1: GPR84 ligand associated endometrial inflammation assay (cytokines in supernatant, Bio-Plex); assay type: cell-based; details: for IL-1beta in supernatant / TNFalpha in supernatant: endometrium slices, 21 hours
Protocol: Human eutopic endometrium tissue biopsies as surrogate for endometriosis lesion were cut into small slices, washed with HBSS buffer [ThermoFischer, 14175095] and incubated in DMEM/F12 medium [ThermoFischer, 11320-033], supplemented with 5% FCS for 3 hours. […] After 21 hours cytokines in the supernatant were quantified with the Bio-Plex platform according to the supplier's instructions. Data were analyzed using the GraphPad Software (La Jolla, USA). […] These mediators included IL1β and TNFalpha. […] Thus, activation of GPR84 contributes to the inflammation associated with endometriosis and antagonists are able to reduce inflammation

[2] = biological target: T1, GPR84 (Homo sapiens, UniProt Q9NQS5); experiment: GPR84 cAMP release assay, test for antagonism of agonist-induced activation (cAMP Hunter CHO-K1 GPR84 Gi cells, TR-FRET); assay type: cell-based
T1 construct: host or cells: CHO-K1 (cAMP Hunter CHO-K1 GPR84 Gi cells)
T1 sequence (Q9NQS5 whole entry): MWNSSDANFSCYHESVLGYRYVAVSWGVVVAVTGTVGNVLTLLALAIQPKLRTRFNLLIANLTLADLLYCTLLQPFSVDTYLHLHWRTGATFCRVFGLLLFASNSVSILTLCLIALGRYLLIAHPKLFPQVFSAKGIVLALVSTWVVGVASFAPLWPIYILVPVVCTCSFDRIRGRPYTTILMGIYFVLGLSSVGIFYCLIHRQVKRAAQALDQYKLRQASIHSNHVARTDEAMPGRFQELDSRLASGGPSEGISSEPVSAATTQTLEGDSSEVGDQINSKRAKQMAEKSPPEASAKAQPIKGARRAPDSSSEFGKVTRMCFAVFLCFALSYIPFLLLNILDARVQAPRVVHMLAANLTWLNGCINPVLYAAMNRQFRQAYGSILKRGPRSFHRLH
Protocol: For the resuscitation of frozen cells (cAMP Hunter™ CHO-K1 GPR84 Gi cells; DiscoverX; #95-0158C2) one vial is taken out of the liquid nitrogen storage and rapidly thawed in a water bath at 37° C. for some 1 to 3 minutes. Immediately afterwards the cells are transferred carefully by decanting into a 50 ml Falcon Tube containing 15 ml of pre-warmed full cell culture medium (HAM's F12; 10% FCS; no selection markers). Gentle swirling is used to assist their resuspension. In a next step, the cells are harvested straight away via low g centrifugation for 5 minutes (Hereaus Multifuge 4 KR; 400 rpm; rcf=44 g) to avoid over-compacting the cell pellet. Gentle decanting is used to get rid of the medium. Finally assay readiness is achieved by carefully re-suspending the cell pellet in 5 ml of the final assay medium (HAM's F12; 10% FCS; no selection markers). In a last step, cell viability and the actual cell number is determined (Omni Life Science; Casy Cell Counter/Analyzer) prior to correcting the volume for the final cell number to be seeded, i.e. 2500 cells/μl. Cell seeding is achieved either with the help of multi-channel pipettes or appropriate bulk reagent dispensers.
In a first step, 1 μl of a 4× antagonist solution in the predefined test range (prepared in assay medium; HAM's F12; 10% FCS; 2 mM Glutamin; no selection markers) is added into the wells of a non-sterile 384-well plate (Greiner; white; #784075; Immediately afterwards 2 μl's of assay ready frozen cells are directly seeded into the plate (5000 cells/well)). […] Time resolved FRET (TR-FRET) signals are determined 60 minutes later using an appropriate HTRF reader (BMG Labtech: Pherastar).
Dose response experiments for GPR84 agonists were carried out using the cAMP Hunter™ CHO-K1 GPR84 Gi cell system (DiscoverX) (PathHunter® CHO-K1 hGPR84 β-Arrestin Cell Line cultured with DMF12 HAM, 9% FBS; 300 ug/ml Hygromycin; 800 ug/ml Geneticin; 2 mM Glut; 1% Pen/Strep) in a 384-well plate format. […] Following a 60-minute incubation cAMP levels were determined by TR-FRET as described above. […]

[3] = system: PBMCs; experiment: In vitro assay 2: GPR84 ligand associated IL-1beta and TNFalpha release from PBMCs (ELISA); assay type: cell-based; details: for IL-1beta concentration / TNF alpha concentration: PBMCs stimulated with LPS 100 ng/ml 24 hours, treatment 4 h
Protocol: PBMCs were isolated by Ficoll-Paque Plus (Biochrom) density gradient centrifugation from whole blood. Briefly, PBMCs were centrifuged at 250 g for 30 sec and resuspended and cultured in RPMI 1640 medium [Gibco, CAT No. 11875093] with 10% heat-inactivated FBS, L-Glutamine (10 g/L), penicillin (100 IU/mL), and streptomycin ([…]) at 37° C. in a 5% CO2 environment. Cells were stimulated with LPS (100 ng/ml, Sigma-Aldrich) for 24 hours and treated with the GPR84 agonist 6-n-octylaminouracil and antagonist CMPD 139 for 4 h. IL-1beta and TNFalpha concentrations were analyzed by ELISA (Mesoscale Discovery, Germany).

[4] = system: mouse CFA model of inflammation; experiment: CFA pain model, dynamic weight-bearing (DWB); assay type: in vivo; details: preventive, 24 h after CFA, vehicle 42.91 +/− 19.32
Protocol: The efficacy of CMPD139 in vivo on inflammatory pain was measured in inflamed paws after administration of complete Freunds' adjuvans (CFA) (24 h) in the dynamic weight-bearing (DWB) model. The effects of repeated preventive treatment with CMPD139 on pain following repeated oral and subcutaneous administration (3×) in the mouse CFA model of inflammation were investigated using a preventive setting. The GPR84 antagonist CMPD139 (90 or 30 mg/kg, p.o.+s.c., 3× doses) was administered 2 h before injection of CFA and 6-8 h later at day 0. At 24 h after CFA application, the third dose of CMPD139 was given 2 h before DWB testing. Statistical analysis was performed with one-way analysis of variance, followed by Bonferroni's multiple comparison test against vehicle control groups using the GraphPad PRISM software, *p<0.05.

[5] = biological target: T1, GPR84; experiment: GPR84 cAMP release assay, test for agonism (cAMP Hunter CHO-K1 GPR84 Gi cells, TR-FRET); assay type: cell-based; details: 60 min incubation
Protocol: For the resuscitation of frozen cells (cAMP Hunter™ CHO-K1 GPR84 Gi cells; DiscoverX; #95-0158C2) one vial is taken out of the liquid nitrogen storage and rapidly thawed in a water bath at 37° C. for some 1 to 3 minutes. Immediately afterwards the cells are transferred carefully by decanting into a 50 ml Falcon Tube containing 15 ml of pre-warmed full cell culture medium (HAM's F12; 10% FCS; no selection markers). Gentle swirling is used to assist their resuspension. In a next step, the cells are harvested straight away via low g centrifugation for 5 minutes (Hereaus Multifuge 4 KR; 400 rpm; rcf=44 g) to avoid over-compacting the cell pellet. Gentle decanting is used to get rid of the medium. Finally assay readiness is achieved by carefully re-suspending the cell pellet in 5 ml of the final assay medium (HAM's F12; 10% FCS; no selection markers). In a last step, cell viability and the actual cell number is determined (Omni Life Science; Casy Cell Counter/Analyzer) prior to correcting the volume for the final cell number to be seeded, i.e. 2500 cells/μl. […]
2 μl's of assay ready frozen cells are directly seeded into the wells of a non-sterile 384-well plate (Greiner; white; #784075; 5000 cells/well). […] Time resolved FRET (TR-FRET) signals are determined 60 minutes later using an appropriate HTRF reader (BMG Labtech: Pherastar). […]

[6] = 6-n-octylaminouracil (10 μM) + CMPD 139 (10 μM)
[7] = Decanoic Acid (10 μM) + CMPD. 139 (10 μM)
[8] = 6-n-octylaminouracil (10 μM) alone

Compound: CCCCCCCCCC(=O)O [Decanoic acid, reference compound]
IL-1beta in supernatant ([1]; Decanoic Acid (10 μM) alone): 1.413 pg/mL
TNFalpha in supernatant ([1]; Decanoic Acid (10 μM) alone): 1.953 pg/mL

pIC50 ([2]; with 6-n-octylaminouracil 1.34 × 10^−7 M): 7.70
pIC50 ([2]; with 40 × 10^−6 M 2-OH decanoic acid): 7.80
pIC50 ([2]; with embelin 6.00 10^−6 M): 8.03
Compound: Cc1ccc(-c2ccc3c(c2)CCn2c-3cc(OCC3COc4ncccc4O3)nc2=O)cn1 (stereo not shown) [CMPD 139]
IL-1beta concentration [3, 6]: 1933.011 pg/mL
TNF alpha concentration [3, 6]: 479.6307 pg/mL
Effect on GPR84 elevated IL-1beta and TNFalpha levels ([3]; LPS-stimulated PBMCs, with 6-n-octylaminouracil): reduced GPR84 elevated IL-1beta and TNFalpha levels
Weight distribution (% Ipsi/contra) 2 h post last dose mean +/− SD ([4]; 3x 30 + 30 mg/kg p.o./s.c.): 55.82 +/− 17.38 % Ipsi/contra
Weight distribution (% Ipsi/contra) 2 h post last dose mean +/− SD ([4]; 3x 90 + 90 mg/kg p.o./s.c., *p<0.05 vs vehicle): 60.37 +/− 15.45* % Ipsi/contra
Effect on cytokine and growth factor levels compared to agonist alone ([1]; CMPD 139 at 10^−5 M combined with decanoic acid): reduced all measured cytokine and growth factors
IL-1beta in supernatant [1, 7]: 0.9600 pg/mL
TNFalpha in supernatant [1, 7]: 1.270 pg/mL

Compound: CCCCCCCCNc1cc(=O)[nH]c(=O)[nH]1 [6-n-octylaminouracil, reference compound]
IL-1beta concentration [3, 8]: 3427.673 pg/mL
TNF alpha concentration [3, 8]: 955.6923 pg/mL

pEC50 [5]: 4.62
Compound: CCCCCCCCC(O)C(=O)O (stereo not shown) [2-OH-decanoic acid, 2-Hydroxydecanoic acid]
